{"source": "paper PMC4806491", "about": "“The milk-derived fusion peptide, ACFP, suppresses the growth of primary human ovarian cancer cells by regulating apoptotic gene expression and signaling pathways” (BMC Cancer, 2016)", "system": "primary ovarian cancer cells", "conditions": "48 h; for LOC441241 Ratio (ACFP/control): NM_441241", "note": "Where two headings read alike, the source gives them in different places. Positions of bridges follow the written chain, without caps; N, C: chain ends. Residues, ends and D or L forms follow the SMILES beside them.", "method": "We utilized cDNA microarrays to observe the effect of ACFP on gene expression in primary ovarian cancer cells. Cells were treated with 0 (the vehicle group, as control), 5 × 10^6 g/L and 5 × 10^3 g/L ACFP, respectively, and cultured for 48 h at 37 °C in 5 % CO2. Cells were later digested and collected for total RNA extraction using Trizol. The RNA concentrations and purities were detected with a spectrophotometer. The experiments were performed in duplicate on a single total RNA preparation from the cells. Signal values were presented as the mean value of two replicate experiments. RNA samples were used to generate human whole genome expression profiling microarray (Yeli Bioscience Co., Ltd.; Shanghai, China). RNA was subsequently converted into digoxigenin-labeled complementary RNA and hybridized to a human genome microarray system (Human OneArray Microarray, from Phalanx Biotech Group, Taiwan). The chips were scanned by a GeeDom® LuxScan 10 K microarray scanner. LuxScan3.0 software was used to extract probe fluorescence signals and analyze images. Finally, the original data were processed by normalizing."}
{"compound": "CC[C@H](C)[C@@H]1NC(=O)[C@H](CO)NC(=O)[C@@H]2CCCN2C(=O)[C@H](C)NC(=O)CNC(=O)[C@H](CC(C)C)NC(=O)[C@H](CCCCN)NC(=O)[C@H](CCCCN)NC(=O)[C@H](CCSC)NC(=O)[C@H](CCCNC(=N)N)NC(=O)[C@H](Cc2c[nH]c3ccccc23)NC(=O)[C@H](CCC(N)=O)NC(=O)[C@H](Cc2c[nH]c3ccccc23)NC(=O)[C@H](CCCNC(=N)N)NC(=O)[C@H](CCCNC(=N)N)NC(=O)[C@@H](NC(=O)[C@H](CCCCN)NC(=O)[C@@H](N)Cc2ccccc2)CSSC[C@@H](C(=O)N[C@H](C(=O)N[C@@H](CCCNC(=N)N)C(=O)N[C@@H](CCCNC(=N)N)C(=O)N[C@@H](C)C(=O)N[C@@H](Cc2ccccc2)C(=O)NCC(=O)NCC(=O)NCC(=O)NCC(=O)N[C@@H](CO)C(=O)N2CCC[C@H]2C(=O)NCC(=O)N2CCC[C@H]2C(=O)N[C@H](C(=O)N2CCC[C@H]2C(=O)N[C@@H](CC(N)=O)C(=O)O)[C@@H](C)CC)C(C)C)NC(=O)[C@H]([C@@H](C)O)NC1=O", "note": "[ACFP] (H-FKCRRWQWRMKKLGAPSITCVRRAFGGGGSPGPIPN-OH; disulfide 3-20; N-terminus and C-terminus assumed)", "values": [{"measurement": "LOC441241 Ratio (ACFP/control)", "setting": "High dose 5×10^-3 g/L", "result": 5.22}, {"measurement": "GTF2IP1 Ratio (ACFP/control)", "setting": "Low dose 5×10^-6 g/L, NM-002970", "result": 0.47}, {"measurement": "IGFBP5 Ratio (ACFP/control)", "setting": "Low dose 5×10^-6 g/L, NM-003488", "result": 0.45}, {"measurement": "MYLK Ratio (ACFP/control)", "setting": "Low dose 5×10^-6 g/L, NM-004638", "result": 0.33}, {"measurement": "NKX3-1 Ratio (ACFP/control)", "setting": "Low dose 5×10^-6 g/L, NM-004824", "result": 2.8}, {"measurement": "PLA2G5 Ratio (ACFP/control)", "setting": "Low dose 5×10^-6 g/L, NM-005322", "result": 0.36}, {"measurement": "POLH Ratio (ACFP/control)", "setting": "Low dose 5×10^-6 g/L, NM-005429", "result": 0.33}, {"measurement": "PSMA1 Ratio (ACFP/control)", "setting": "Low dose 5×10^-6 g/L, NM-005682", "result": 0.39}, {"measurement": "STAT5B Ratio (ACFP/control)", "setting": "Low dose 5×10^-6 g/L, NM-006777", "result": 3.24}, {"measurement": "STAT6 Ratio (ACFP/control)", "setting": "Low dose 5×10^-6 g/L, NM-006778", "result": 2.06}, {"measurement": "UPP1 Ratio (ACFP/control)", "setting": "Low dose 5×10^-6 g/L, NM-007378", "result": 0.48}, {"measurement": "TNFSF18 Ratio (ACFP/control)", "setting": "Low dose 5×10^-6 g/L, NM-008995", "result": 0.49}, {"measurement": "MAP4K4 Ratio (ACFP/control)", "setting": "Low dose 5×10^-6 g/L, NM-009448", "result": 0.36}, {"measurement": "BTF/BCLAF1 Ratio (ACFP/control)", "setting": "Low dose 5×10^-6 g/L, NM-009774", "result": 3.25}, {"measurement": "TMEFF1 Ratio (ACFP/control)", "setting": "Low dose 5×10^-6 g/L, NM-016522", "result": 3.33}, {"measurement": "RAB18 Ratio (ACFP/control)", "setting": "Low dose 5×10^-6 g/L, NM-022931", "result": 0.30}, {"measurement": "TCF/LEF1 Ratio (ACFP/control)", "setting": "Low dose 5×10^-6 g/L, NM-051176", "result": 0.36}, {"measurement": "PINX1 Ratio (ACFP/control)", "setting": "Low dose 5×10^-6 g/L, NM-054984", "result": 0.45}, {"measurement": "RINT-1 Ratio (ACFP/control)", "setting": "Low dose 5×10^-6 g/L, NM-060561", "result": 0.32}, {"measurement": "C17orf37 Ratio (ACFP/control)", "setting": "Low dose 5×10^-6 g/L, NM-084299", "result": 0.39}, {"measurement": "ZNF512 Ratio (ACFP/control)", "setting": "Low dose 5×10^-6 g/L, NM-084450", "result": 0.31}, {"measurement": "AKT1 Ratio (ACFP/control)", "setting": "Low dose 5×10^-6 g/L, NM_000207", "result": 0.29}, {"measurement": "ARHE Ratio (ACFP/control)", "setting": "Low dose 5×10^-6 g/L, NM_000390", "result": 2.99}, {"measurement": "BAG1 Ratio (ACFP/control)", "setting": "Low dose 5×10^-6 g/L, NM_000573", "result": 0.48}, {"measurement": "BAX Ratio (ACFP/control)", "setting": "Low dose 5×10^-6 g/L, NM_000581", "result": 3.73}, {"measurement": "BCL-xl Ratio (ACFP/control)", "setting": "Low dose 5×10^-6 g/L, NM_000598", "result": 0.28}, {"measurement": "C1QG Ratio (ACFP/control)", "setting": "Low dose 5×10^-6 g/L, NM_000714", "result": 2.02}, {"measurement": "CASP3 Ratio (ACFP/control)", "setting": "Low dose 5×10^-6 g/L, NM_000836", "result": 3.72}, {"measurement": "CCNB1 Ratio (ACFP/control)", "setting": "Low dose 5×10^-6 g/L, NM_000891, cyclinB1", "result": 0.30}, {"measurement": "TNFRSF8 Ratio (ACFP/control)", "setting": "Low dose 5×10^-6 g/L, NM_000943, first entry", "result": 2.05}, {"measurement": "TNFRSF8 Ratio (ACFP/control)", "setting": "Low dose 5×10^-6 g/L, NM_000943, second entry", "result": 2.02}, {"measurement": "CDC25C Ratio (ACFP/control)", "setting": "Low dose 5×10^-6 g/L, NM_000995", "result": 0.29}, {"measurement": "CDKN1A Ratio (ACFP/control)", "setting": "Low dose 5×10^-6 g/L, NM_001026", "result": 3.24}, {"measurement": "CDKN1A/p21 Ratio (ACFP/control)", "setting": "Low dose 5×10^-6 g/L, NM_001026, second entry", "result": 3.24}, {"measurement": "CKS2 Ratio (ACFP/control)", "setting": "Low dose 5×10^-6 g/L, NM_001164", "result": 3.67}, {"measurement": "DVL1 Ratio (ACFP/control)", "setting": "Low dose 5×10^-6 g/L, NM_001855", "result": 3.58}, {"measurement": "GRK4 Ratio (ACFP/control)", "setting": "Low dose 5×10^-6 g/L, NM_002868", "result": 0.42}, {"measurement": "GRK5 Ratio (ACFP/control)", "setting": "Low dose 5×10^-6 g/L, NM_002869", "result": 0.47}, {"measurement": "GRK6 Ratio (ACFP/control)", "setting": "Low dose 5×10^-6 g/L, NM_002870", "result": 0.49}, {"measurement": "GSTM4 Ratio (ACFP/control)", "setting": "Low dose 5×10^-6 g/L, NM_002948", "result": 2.25}, {"measurement": "GSTM5 Ratio (ACFP/control)", "setting": "Low dose 5×10^-6 g/L, NM_002949", "result": 3.55}, {"measurement": "IRF7 Ratio (ACFP/control)", "setting": "Low dose 5×10^-6 g/L, NM_003665", "result": 3.13}, {"measurement": "ITGA5 Ratio (ACFP/control)", "setting": "Low dose 5×10^-6 g/L, NM_003678", "result": 0.36}, {"measurement": "PKIA Ratio (ACFP/control)", "setting": "Low dose 5×10^-6 g/L, NM_005569", "result": 2.52}, {"measurement": "MAPK3/ERK1 Ratio (ACFP/control)", "setting": "Low dose 5×10^-6 g/L, NM_005595", "result": 0.36}, {"measurement": "MAPK8/JNK1 Ratio (ACFP/control)", "setting": "Low dose 5×10^-6 g/L, NM_005599", "result": 2.04}, {"measurement": "MAPK13/p38 delta Ratio (ACFP/control)", "setting": "Low dose 5×10^-6 g/L, NM_005603", "result": 2.91}, {"measurement": "PSMB8 Ratio (ACFP/control)", "setting": "Low dose 5×10^-6 g/L, NM_005696", "result": 2.97}, {"measurement": "TNFRSF1A Ratio (ACFP/control)", "setting": "Low dose 5×10^-6 g/L, NM_007132, first entry", "result": 3.50}, {"measurement": "TNFRSF1A Ratio (ACFP/control)", "setting": "Low dose 5×10^-6 g/L, NM_007132, second entry", "result": 3.50}, {"measurement": "ZNF12 Ratio (ACFP/control)", "setting": "Low dose 5×10^-6 g/L, NM_007559", "result": 2.07}, {"measurement": "BAT5 Ratio (ACFP/control)", "setting": "Low dose 5×10^-6 g/L, NM_007920", "result": 3.66}, {"measurement": "PABPN1 Ratio (ACFP/control)", "setting": "Low dose 5×10^-6 g/L, NM_008106", "result": 3.71}, {"measurement": "TNFRSF10B Ratio (ACFP/control)", "setting": "Low dose 5×10^-6 g/L, NM_008795", "result": 2.43}, {"measurement": "STK17B Ratio (ACFP/control)", "setting": "Low dose 5×10^-6 g/L, NM_009262", "result": 2.01}, {"measurement": "TRAF4 Ratio (ACFP/control)", "setting": "Low dose 5×10^-6 g/L, NM_009618", "result": 3.34}, {"measurement": "USP34 Ratio (ACFP/control)", "setting": "Low dose 5×10^-6 g/L, NM_009736", "result": 3.49}, {"measurement": "GOLGA5 Ratio (ACFP/control)", "setting": "Low dose 5×10^-6 g/L, NM_009950", "result": 2.46}, {"measurement": "SUI1 Ratio (ACFP/control)", "setting": "Low dose 5×10^-6 g/L, NM_010209", "result": 2.89}, {"measurement": "SPINT2 Ratio (ACFP/control)", "setting": "Low dose 5×10^-6 g/L, NM_010653", "result": 3.58}, {"measurement": "PIK3R5 Ratio (ACFP/control)", "setting": "Low dose 5×10^-6 g/L, NM_023533", "result": 0.39}, {"measurement": "CARD10 Ratio (ACFP/control)", "setting": "Low dose 5×10^-6 g/L, NM_029775", "result": 2.43}, {"measurement": "FLJ39616 Ratio (ACFP/control)", "setting": "Low dose 5×10^-6 g/L, NM_051275", "result": 3.34}, {"measurement": "GNG12 Ratio (ACFP/control)", "setting": "Low dose 5×10^-6 g/L, NM_055970", "result": 3.49}, {"measurement": "BCORL1 Ratio (ACFP/control)", "setting": "Low dose 5×10^-6 g/L, NM_063035", "result": 0.35}, {"measurement": "CARD14 Ratio (ACFP/control)", "setting": "Low dose 5×10^-6 g/L, NM_079092", "result": 2.13}, {"measurement": "BCL2L14 Ratio (ACFP/control)", "setting": "Low dose 5×10^-6 g/L, NM_079370", "result": 2.44}, {"measurement": "FLJ13848 Ratio (ACFP/control)", "setting": "Low dose 5×10^-6 g/L, NM_079829", "result": 3.28}, {"measurement": "SNARK Ratio (ACFP/control)", "setting": "Low dose 5×10^-6 g/L, NM_081788", "result": 3.08}, {"measurement": "C1QTNF6 Ratio (ACFP/control)", "setting": "Low dose 5×10^-6 g/L, NM_114904, first entry", "result": 3.57}, {"measurement": "C1QTNF6 Ratio (ACFP/control)", "setting": "Low dose 5×10^-6 g/L, NM_114904, second entry", "result": 3.43}, {"measurement": "LOC441241 Ratio (ACFP/control)", "setting": "Low dose 5×10^-6 g/L", "result": 3.48}]}
